Test results as given in ChEMBL document CHEMBL1201862, “PubChem BioAssay data set” (2004).
Active and inactive are the calls of the source.

How the values were obtained:
[1] = target: Cytochrome P450 2D6 (Homo sapiens, UniProt P10635);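 note: CYP2D6 member of a cytochrome P450 panel assay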
[2] = target: Cytochrome P450 2C9 (Homo sapiens, UniProt P11712)
[3] = target: T1, Corticotropin-releasing factor receptor 2/Corticotropin-releasing factor-binding protein (Homo sapiens, UniProt P24387+Q13324); assay: Dose Response confirmation of uHTS hits for small molecule antagonists of the CRF-binding protein and CRF-R2 receptor complex.; format: functional; conditions: read-out: IC50_Mean
T1 sequence (Q13324 whole entry): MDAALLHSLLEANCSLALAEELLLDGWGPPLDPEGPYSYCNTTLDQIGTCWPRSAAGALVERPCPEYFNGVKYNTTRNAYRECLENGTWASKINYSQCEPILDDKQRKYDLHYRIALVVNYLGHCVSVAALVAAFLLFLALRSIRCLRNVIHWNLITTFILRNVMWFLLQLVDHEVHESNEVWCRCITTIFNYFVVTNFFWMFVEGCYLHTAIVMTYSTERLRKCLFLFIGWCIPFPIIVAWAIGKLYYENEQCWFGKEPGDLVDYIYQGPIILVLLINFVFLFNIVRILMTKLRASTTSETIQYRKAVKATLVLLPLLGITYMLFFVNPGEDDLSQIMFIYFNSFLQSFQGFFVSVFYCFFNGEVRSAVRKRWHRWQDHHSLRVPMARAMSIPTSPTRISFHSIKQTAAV
T1 sequence (P24387 whole entry): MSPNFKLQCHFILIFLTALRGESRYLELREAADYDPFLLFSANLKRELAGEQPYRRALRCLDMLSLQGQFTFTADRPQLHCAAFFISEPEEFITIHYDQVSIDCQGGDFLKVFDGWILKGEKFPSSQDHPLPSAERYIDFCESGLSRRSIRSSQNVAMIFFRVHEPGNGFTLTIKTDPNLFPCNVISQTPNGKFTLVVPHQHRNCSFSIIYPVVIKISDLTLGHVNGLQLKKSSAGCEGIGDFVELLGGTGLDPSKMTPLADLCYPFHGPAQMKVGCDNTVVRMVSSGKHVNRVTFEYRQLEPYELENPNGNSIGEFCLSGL

[4] = target: T1, Corticotropin-releasing factor receptor 2/Corticotropin-releasing factor-binding protein; assay: activators of CRF receptor 2 with binding protein – uHTS hits, confirmation (AID 602473); format: functional; conditions: read-out: EC50_Mean
[5] = target: T2, Cytochrome P450 1A2 (Homo sapiens, UniProt P05177);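 note: PubChem cytochrome P450 panel assay, CYP1A2 panel member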
T2 sequence (P05177 whole entry): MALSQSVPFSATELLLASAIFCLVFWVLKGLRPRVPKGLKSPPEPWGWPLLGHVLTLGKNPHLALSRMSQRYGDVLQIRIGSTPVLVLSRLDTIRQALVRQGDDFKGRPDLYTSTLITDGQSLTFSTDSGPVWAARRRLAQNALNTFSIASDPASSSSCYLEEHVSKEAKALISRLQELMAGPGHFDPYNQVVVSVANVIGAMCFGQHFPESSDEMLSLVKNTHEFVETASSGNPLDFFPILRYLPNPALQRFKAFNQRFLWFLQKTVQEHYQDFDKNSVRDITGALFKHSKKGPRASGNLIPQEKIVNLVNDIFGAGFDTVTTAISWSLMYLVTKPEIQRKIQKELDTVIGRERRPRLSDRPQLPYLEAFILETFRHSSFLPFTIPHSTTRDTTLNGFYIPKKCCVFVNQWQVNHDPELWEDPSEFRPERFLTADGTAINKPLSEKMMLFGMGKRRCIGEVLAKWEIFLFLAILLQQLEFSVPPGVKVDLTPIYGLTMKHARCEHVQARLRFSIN

[6] = target: T3, Heat shock factor protein 1 (Mus musculus, UniProt P38532); assay: enhancement of HSF1-driven luciferase signal – cell-based, NIH3T3, luminescence, dose retest, confirmation (AID 435004); format: functional;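 note: stress induced by proteasome inhibitor MG132 added 30 min after compound; luciferase reporter driven by HSF1 response element in NIH3T3 cells; actives raise luminescence as potentiators of the MG132 stress response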
T3 sequence (P38532 whole entry): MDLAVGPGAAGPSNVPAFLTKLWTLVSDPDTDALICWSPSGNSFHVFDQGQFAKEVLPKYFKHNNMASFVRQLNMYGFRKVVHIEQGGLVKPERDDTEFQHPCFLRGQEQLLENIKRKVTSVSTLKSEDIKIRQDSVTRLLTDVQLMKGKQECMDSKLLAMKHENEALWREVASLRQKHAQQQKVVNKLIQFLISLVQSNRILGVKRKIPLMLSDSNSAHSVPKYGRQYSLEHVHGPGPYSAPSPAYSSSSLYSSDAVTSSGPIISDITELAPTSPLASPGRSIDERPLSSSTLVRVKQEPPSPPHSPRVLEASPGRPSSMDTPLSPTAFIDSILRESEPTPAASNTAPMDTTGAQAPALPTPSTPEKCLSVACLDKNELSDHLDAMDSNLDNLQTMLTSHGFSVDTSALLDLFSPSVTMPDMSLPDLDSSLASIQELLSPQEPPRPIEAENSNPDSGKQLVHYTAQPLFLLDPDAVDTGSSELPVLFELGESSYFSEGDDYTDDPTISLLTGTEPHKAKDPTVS

[7] = target: Cytochrome P450 2C19 (Homo sapiens, UniProt P33261); assay: Cytochrome panel assay with activity outcomes. Panel member name: p450-cyp2c19 Compounds with AC50 equal or less than 10 uM are considered active; format: functional; conditions: read-out: AC50
[8] = target: Cytochrome P450 3A4 (Homo sapiens, UniProt P08684);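 note: CYP3A4 tested as one member of a cytochrome P450 panel screen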
[9] = target: Paired box protein Pax-8 (Homo sapiens, UniProt Q06710); assay: PAX8 transcriptional activity inhibition in RMG-I – RMG-I cells, luciferase, cherry-pick, dose response (AID 687027); format: functional, cell-based;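 note: luciferase reporter driven by Pax8 target thyroperoxidase promoter measured by SteadyGlo luminescence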
Paired box protein Pax-8, sequence (Q06710 whole entry): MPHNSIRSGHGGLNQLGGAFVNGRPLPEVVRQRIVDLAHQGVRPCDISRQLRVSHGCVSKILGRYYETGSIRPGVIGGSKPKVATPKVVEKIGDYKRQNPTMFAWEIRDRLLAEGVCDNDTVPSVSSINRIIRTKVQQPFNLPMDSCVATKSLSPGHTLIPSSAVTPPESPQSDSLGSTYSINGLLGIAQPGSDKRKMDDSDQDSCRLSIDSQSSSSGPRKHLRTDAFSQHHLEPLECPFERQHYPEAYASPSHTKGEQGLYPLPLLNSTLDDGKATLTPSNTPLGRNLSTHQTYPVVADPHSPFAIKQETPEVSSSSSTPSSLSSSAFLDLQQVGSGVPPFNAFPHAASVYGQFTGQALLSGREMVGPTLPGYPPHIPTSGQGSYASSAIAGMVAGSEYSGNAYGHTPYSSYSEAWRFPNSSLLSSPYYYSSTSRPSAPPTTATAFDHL

Cytochrome P450 2C19, sequence (P33261 whole entry): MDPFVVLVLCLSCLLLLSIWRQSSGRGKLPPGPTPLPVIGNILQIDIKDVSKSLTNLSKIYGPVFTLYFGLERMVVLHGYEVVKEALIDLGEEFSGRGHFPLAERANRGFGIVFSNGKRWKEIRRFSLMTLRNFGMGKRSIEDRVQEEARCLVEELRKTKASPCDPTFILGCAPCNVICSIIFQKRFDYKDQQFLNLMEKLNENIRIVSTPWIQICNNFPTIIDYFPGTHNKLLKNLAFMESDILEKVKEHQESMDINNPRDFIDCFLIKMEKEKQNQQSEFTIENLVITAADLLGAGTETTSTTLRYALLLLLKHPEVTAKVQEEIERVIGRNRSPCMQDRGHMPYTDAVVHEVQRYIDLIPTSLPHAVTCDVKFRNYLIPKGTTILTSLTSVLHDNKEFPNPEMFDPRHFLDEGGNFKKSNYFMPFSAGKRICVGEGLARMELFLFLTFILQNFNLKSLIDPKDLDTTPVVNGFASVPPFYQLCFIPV
Cytochrome P450 2C9, sequence (P11712 whole entry): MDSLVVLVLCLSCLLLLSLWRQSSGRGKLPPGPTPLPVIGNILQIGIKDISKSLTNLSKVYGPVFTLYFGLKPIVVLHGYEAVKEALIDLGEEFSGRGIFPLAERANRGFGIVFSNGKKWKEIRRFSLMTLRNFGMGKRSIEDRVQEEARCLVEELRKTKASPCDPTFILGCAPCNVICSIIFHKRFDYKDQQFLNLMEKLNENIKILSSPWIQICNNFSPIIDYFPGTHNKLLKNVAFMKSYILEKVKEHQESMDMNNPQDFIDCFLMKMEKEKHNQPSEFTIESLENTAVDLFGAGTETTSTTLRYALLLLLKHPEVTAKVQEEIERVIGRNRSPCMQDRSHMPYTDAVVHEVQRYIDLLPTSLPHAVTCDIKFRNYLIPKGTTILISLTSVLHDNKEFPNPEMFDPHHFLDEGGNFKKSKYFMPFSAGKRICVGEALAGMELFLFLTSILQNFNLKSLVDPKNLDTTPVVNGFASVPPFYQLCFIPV
Cytochrome P450 2D6, sequence (P10635 whole entry): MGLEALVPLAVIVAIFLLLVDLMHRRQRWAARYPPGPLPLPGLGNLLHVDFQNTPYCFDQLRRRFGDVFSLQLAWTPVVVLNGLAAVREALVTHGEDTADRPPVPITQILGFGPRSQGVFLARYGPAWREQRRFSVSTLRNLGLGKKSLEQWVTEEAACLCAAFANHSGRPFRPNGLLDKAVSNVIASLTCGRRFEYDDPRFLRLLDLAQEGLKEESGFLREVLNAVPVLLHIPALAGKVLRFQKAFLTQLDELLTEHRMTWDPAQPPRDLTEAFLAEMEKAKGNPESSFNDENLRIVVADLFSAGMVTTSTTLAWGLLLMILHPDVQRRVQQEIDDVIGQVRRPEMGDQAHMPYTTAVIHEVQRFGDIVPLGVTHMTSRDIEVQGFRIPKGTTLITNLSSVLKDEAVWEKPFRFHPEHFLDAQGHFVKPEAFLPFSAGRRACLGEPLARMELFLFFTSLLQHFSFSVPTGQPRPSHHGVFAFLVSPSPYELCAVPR
Cytochrome P450 3A4, sequence (P08684 whole entry): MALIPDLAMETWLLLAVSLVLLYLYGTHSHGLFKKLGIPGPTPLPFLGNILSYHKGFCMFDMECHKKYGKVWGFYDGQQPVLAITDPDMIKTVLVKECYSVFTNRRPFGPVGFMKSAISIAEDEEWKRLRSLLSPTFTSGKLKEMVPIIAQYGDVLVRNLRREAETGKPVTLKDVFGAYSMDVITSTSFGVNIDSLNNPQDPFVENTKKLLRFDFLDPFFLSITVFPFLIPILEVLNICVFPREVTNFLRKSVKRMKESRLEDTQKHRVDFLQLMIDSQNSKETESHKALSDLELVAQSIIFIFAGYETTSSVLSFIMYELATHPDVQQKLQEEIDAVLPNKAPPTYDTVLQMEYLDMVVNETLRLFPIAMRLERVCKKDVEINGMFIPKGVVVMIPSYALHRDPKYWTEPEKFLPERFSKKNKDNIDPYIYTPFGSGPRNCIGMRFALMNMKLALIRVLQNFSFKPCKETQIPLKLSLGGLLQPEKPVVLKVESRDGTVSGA

N#CCSc1nc2ccc(N3CCCCC3)cc2c(=O)n1Cc1ccccc1
AC50 [1]: 5.62 µM (inconclusive)
AC50 [2]: 4.47 µM (inconclusive)

CCOC(=O)c1c[nH]nc1N=C(S)Nc1ccc(Cl)cc1
IC50 [3]: > 47.1 µM (inactive)
EC50 [4]: > 53 µM (inactive)

CCCCC(=O)Nc1ccc(C)c(O)c1
AC50 [1]: 17.8 µM (inconclusive)
AC50 [2]: 14.1 µM (inconclusive)

O=C(/C=C\c1ccc(O)c(O)c1)O[C@@H](Cc1ccc(O)c(O)c1)C(=O)O
AC50 [5]: 25.1 µM (inconclusive)

NC1(C(=O)O)CC(C(=O)O)C1 (stereo not given)
AC50 [5]: 39.8 µM (inconclusive)

Nc1nc(N)c(/N=N\c2ccc([As](=O)(O)O)c(O)c2)c(N)n1
AC50 [5]: 6.31 µM (inconclusive)

COCCNc1ccnc(-c2ccccc2CN(C)C)n1
AC50 [1]: 39.8 µM (inconclusive)

C=CCn1c(=O)c2c3c(sc2n2c(Nc4ccccc4)nnc12)CCCC3
EC50 [6]: > 260 µM (inactive)

Cc1ccc(N(C(=O)Cn2nnc(-c3ccc(F)cc3)n2)C(CC(C)C)C(=O)NCC2CCCO2)cc1 (stereo not given)
AC50 [1]: 25.1 µM (inconclusive)

Cc1nc2c(C(=O)N3CCOCC3)cnn2c(C)c1Cc1ccc(Cl)cc1
AC50 [1]: 25.1 µM (inconclusive)

CS(=O)(=O)Nc1cccc(-c2cncnc2NCc2cccnc2)c1
AC50 [1]: 39.8 µM (inconclusive)

O=C(Nc1ccccc1)N1CC2(CCN(C(=O)c3cnccn3)CC2)C1
AC50 [5]: 20 µM (inconclusive)

N#Cc1ccc(CN2CC[C@@]3(CCCN(S(=O)(=O)c4ccccc4)C3)C2)cc1
AC50 [5]: 15.8 µM (inconclusive)

Cc1cnn(CCC(=O)NN=C(S)Nc2cccc(Cl)c2)c1
AC50 [7]: 39.8 µM (inconclusive)
AC50 [5]: 15.8 µM (inconclusive)
AC50 [2]: 15.8 µM (inconclusive)

O=C(CSCc1ccc(Br)cc1)N1CCCC1
EC50 [6]: 108 µM (active)

COc1cc(NC(=O)CSc2cc(C)c3cc(C)cc(C)c3n2)c(C(=O)O)cc1OC
IC50 [3]: > 47.1 µM (inactive)
EC50 [4]: > 53 µM (inactive)

CCOc1cc(NC(=O)C2CCCCC2)c(OCC)cc1NC(=O)c1ccco1
AC50 [5]: 2 µM (inconclusive)
AC50 [8]: 1.12 µM (inconclusive)
AC50 [2]: 11.2 µM (inconclusive)

COC(=O)c1ccccc1N=C(S)N(Cc1ccc2c(c1)OCO2)Cc1cc2ccc(OC)cc2nc1O
EC50 [6]: > 260 µM (inactive)

CCn1c(COc2ccccc2)nnc1SCC(=O)c1cccc([N+](=O)[O-])c1
AC50 [7]: 39.8 µM (inconclusive)
AC50 [5]: 28.2 µM (inconclusive)

Cn1cccc1C(=O)N1CCC[C@@]2(CCN(Cc3ccc(C#N)cc3)C2)C1
AC50 [1]: 20 µM (inconclusive)

O=C(CN1C(=O)NC2(CCCc3ccccc32)C1=O)Nc1cccc(S(=O)(=O)N2CCCCC2)c1 (stereo not given)
EC50 [6]: > 260 µM (inactive)

O=[N+]([O-])c1cccc(-c2nc(-c3ccccn3)no2)c1
IC50 [3]: > 47.1 µM (inactive)
EC50 [4]: > 53 µM (inactive)

N#CCCn1c(=O)c(-c2cccc(C#N)c2)nc2cnc(N3CCOCC3)nc21
AC50 [5]: 15.8 µM (inconclusive)
AC50 [8]: 15.8 µM (inconclusive)

O[C@]1(c2ccccc2)c2ccccc2N=C2NCCN21
AC50 [1]: 2.51 µM (inconclusive)

CCc1c2c(nc3c(C(C)C)cccc13)-c1cccc(=O)n1C2
AC50 [7]: 20 µM (inconclusive)
AC50 [1]: 39.8 µM (inconclusive)

CC1(C)C(=O)C(c2ccccc2)=C2CN3C(=O)N(CCc4ccccc4)C(=O)C3(Cc3ccc(F)cc3)C=C21 (stereo not given)
AC50 [5]: 15.8 µM (inconclusive)
AC50 [2]: 10 µM (inconclusive)

CCOc1ccccc1/C=C(/NC(=O)c1ccccc1)C(=O)NC(C)c1ccccc1 (stereo not given)
IC50 [3]: > 47.1 µM (inactive)
EC50 [4]: > 53 µM (inactive)

CCCn1nc(C(=O)NCC(C)(C)N2CCOCC2)c2ccccc2c1=O
AC50 [1]: 3.98 µM (inconclusive)
AC50 [2]: 39.8 µM (inconclusive)

CCOc1cccc(C2NCc3ccccc3-n3cccc32)c1O (stereo not given)
EC50 [6]: > 260 µM (inactive)

CCCCC(C(=O)O)C(C)CC(=O)Nc1nncs1 (stereo not given)
IC50 [3]: > 47.1 µM (inactive)
EC50 [4]: > 53 µM (inactive)

Cc1ccc2nc(-c3cccnc3)oc2c1
AC50 [7]: 28.2 µM (inconclusive)
AC50 [1]: 5.62 µM (inconclusive)

CC(C)(C)OC(=O)NCCCC[C@H](NC(=O)c1[nH]cnc1C(=O)N[C@@H](Cc1ccccc1)C(=O)OC(C)(C)C)C(=O)OC(C)(C)C
AC50 [9]: 7.6 µM (active)

O=C(NCc1cc(C(F)(F)F)cc(C(F)(F)F)c1)C1CC(c2cccc([N+](=O)[O-])c2)=NO1 (stereo not given)
EC50 [6]: 38.4 µM (active)

O=c1c(CCc2ccccc2)nc2cnc(N3CCNCC3)nc2n1Cc1ccc(F)cc1
AC50 [1]: 25.1 µM (inconclusive)
AC50 [5]: 10 µM (inconclusive)

CCS(=O)(=O)c1ccc(C(=O)Nc2ccccc2)c(Cl)c1Cl
AC50 [1]: 31.6 µM (inconclusive)
AC50 [5]: 14.1 µM (inconclusive)

O=[N+]([O-])c1cccc(-c2ncc3ccccn23)c1
EC50 [6]: > 260 µM (inactive)

COc1ccc(NC(=S)Nc2ccccc2)cc1
AC50 [5]: 1.26 µM (inconclusive)

CC[C@@](O)(C(=O)O)c1cc2n(c(=O)c1CO)Cc1cc3ccccc3nc1-2
AC50 [5]: 3.16 µM (inconclusive)
AC50 [8]: 3.16 µM (inconclusive)

OCC1(CCCc2ccccc2)CCN(C2CCSCC2)CC1
EC50 [6]: > 260 µM (inactive)

O=C(NC1CCCC1)C1CCC(CNS(=O)(=O)c2ccc(F)cc2)CC1 (stereo not given)
IC50 [3]: > 47.1 µM (inactive)
EC50 [4]: > 53 µM (inactive)

O=C(Nc1ccc(S(=O)(=O)N2CCOCC2)cc1)c1ccc(Cl)c([N+](=O)[O-])c1
IC50 [3]: > 47.1 µM (inactive)
EC50 [4]: > 53 µM (inactive)

COc1cc(CNc2ncnc3c2ncn3[C@H]2CN(Cc3ccc(-c4ccccc4)cc3)C[C@@H](CO)O2)cc(OC)c1OC
AC50 [9]: 7.36 µM (active)

O=C(NCCN1CCN(C(=O)NC2CCCCC2)CC1)NC1CCCCC1
IC50 [3]: > 47.1 µM (inactive)
EC50 [4]: > 53 µM (inactive)

O=C(O)c1ccc(/C=N/Nc2cccc(C(F)(F)F)c2)cc1
IC50 [3]: 43.7 µM (active)
EC50 [4]: > 53 µM (inactive)

O=C(Nc1ccn(CCCNCc2ccc3c(c2)OCO3)c(=O)n1)OCc1ccccc1
IC50 [3]: > 47.1 µM (inactive)
EC50 [4]: > 53 µM (inactive)

CC12CCC3C(CC=C4CC(O)CCC43C)C1C/C(=C\N1CCCC1)C2=O (stereo not given)
EC50 [6]: > 260 µM (inactive)

C[C@@H]1CN([C@H](C)CO)C(=O)Cc2cc(NC(=O)Nc3ccc(F)cc3)ccc2O[C@H]1CN(C)C(=O)Nc1ccc(C(F)(F)F)cc1
AC50 [9]: 11.4 µM (active)

O=C(Cc1ccccn1)N1CCCCN2[C@@H](CO)[C@@H](c3ccc(-c4ccc(F)cc4)cc3)[C@@H]2C1
AC50 [9]: 22.6 µM (active)

Cc1onc(O)c1CC[C@H](N)C(=O)O
AC50 [5]: 39.8 µM (inconclusive)

COc1cc(/C=N\NC(=O)c2ccc(-c3ccccc3)cc2)cc(OC)c1OC(C)=O
AC50 [9]: 0.728 µM (active)
